Assay results: patent US20220127335A1, “TETRAMERIC PROTEIN SCAFFOLDS AS NANO-CARRIERS OF THERAPEUTIC PEPTIDES FOR TREATING CANCER AND OTHER DISEASES” (UNIVERSITY OF MARYLAND, BALTIMORE, priority 2019, published 2022)
Read-outs that look alike come from different tables or passages of the source.

Columns and labels:
[1] = Complete blood cell analysis after 21-day treatment; details: end of three-week treatment
Protocol: (§1) Statistical analysis was performed using T-test, NS standing for no significant difference.

[2] = end of three-week treatment
[3] = system: p53, p21, PUMA, NOXA in HCT116 p53^+/+ cells; assay: Western blotting of p53, p21, PUMA, NOXA; type: cell-based; details: 12.5 μM, 48 h
Protocol: The primary antibodies were from Santa Cruz Biotechnology (p53), Calbiochem (p21, PUMA and NOXA) and Sigma-Aldrich (β-actin), and secondary antibodies conjugated with horseradish peroxidase from Calbiochem.
T-test was performed for statistical analysis, * standing for p<0.05, *** for p<0.001. The data are the means±SD of three independent Western blotting assays.

[4] = system: HCT116 p53^+/+ cells; assay: Cell viability (CCK-8), HCT116 p53^+/+; type: cell-based; details: 48 h after treatment, 1.56 μM to 50 μM
Protocol: (§2) Following a 2-h incubation with CCK-8 reagents, absorbance values at 450 nm were measured on a microplate reader, and percent cell viability was calculated as (Atreatment−Ablank)/(Acontrol−Ablank)×100%. The data are the means of three independent assays.
Three independent assays were performed.

[5] = system: HCT116 p53^+/+ xenograft tumors; assay: Tumor growth inhibition in nude mouse xenograft model; type: in vivo, BALB/c nude mice; details: 5 mg/Kg subcutaneous every other day, 3 weeks
[6] = system: HCT116 p53^+/+ xenograft tumors; assay: Histopathology of xenograft tumors (H&E and TUNEL staining); type: in vivo, BALB/c nude mice; details: tumors after three-week treatment, 5 mg/Kg
Text: Representative tumors from each treatment group were fixed with formaldehyde, dehydrated and sliced into 5 μm-thick sections, and subjected to H&E staining according to standard protocols (scale bar: 50 μm).
FIG. 7F is the terminal deoxynucleotidyl transferase dUTP nick end labeling (TUNEL) assay to stain fragmented DNA in apoptotic cells (scale bar: 50 μm).

[7] = system: HCT 116 p53^+/+ cells; assay: Cellular uptake by flow cytometry and confocal microscopy; type: cell-based
Protocol: HCT 116 p53^+/+ cells were seeded in a 12-well plate at a density of 30,000 cells/well, cultured for 24 h, and treated with peptide or protein at 10 μM for 4 h before flow cytometric analysis.
Hoechst 33342 blue dye was used for nuclei staining.
Peptide/protein internalization and cytosolic release were also examined using both confocal microscopy and flow cytometry.
Cationic cell penetrating peptides as a carrier are known to promote cellular uptake of cargos primarily through the […], which is inhibited by heparin but not by amiloride. To better understand the mechanism of cellular uptake of ^PMIBcr/Abl-R6, confocal microscopic analysis was performed on cells treated with heparin or amiloride.

[8] = mouse, in vivo
Protocol: as §1

[9] = target: the molecule itself; assay: self-association into tetramer; SEC, DLS, fluorescence polarization, SAXS
[10] = system: HCT116 p53^−/− cells; assay: Cell viability (CCK-8), HCT116 p53^−/−; details: 48 h after treatment
Protocol: as §2

[11] = system: HCT116 p53^+/+ cells; assay: Apoptosis by flow cytometry (annexin V / propidium iodide); type: cell-based; details: 12.5 μM, 48 h
Protocol: Apoptosis was detected using a standard apoptotic kit from Biolegend, including APC labeled anti-annexin V antibody and a propidium iodide solution.
Three independent FACS assays were performed, and data are shown as the means±SD (n=3). p values were calculated by t-test (***, p<0.001).

[12] = target: T1, MDM2 (p53-binding domain) (UniProt Q00987 25-109, limits assumed); assay: ITC, MicroCal ITC 200, 25° C., 20 mM Tris/HCl pH 7.4
T1 construct: The ITC legends say only 'MDM2'
T1 sequence (Q00987 25-109 limits assumed): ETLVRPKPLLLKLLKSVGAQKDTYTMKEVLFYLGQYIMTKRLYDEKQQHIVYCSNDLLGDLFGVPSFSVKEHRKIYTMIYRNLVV

In the case of `COc1ccc(C2=N[C@@H](c3ccc(Cl)cc3)[C@@H](c3ccc(Cl)cc3)N2C(=O)N2CCNC(=O)C2)c(OC(C)C)c1` [Nutlin-3, reference compound], the “blood cell counts (WBC, LYM, MID, GRN, RBC, PLT) versus mock-treated control” value [1] is reported as “no statistically significant difference”, the “toxicity to liver and kidney tissues (H&E)” value (from here on “toxicity”) [2] is reported as “no overt toxicity” and the “expression of p21, PUMA and NOXA (Western blotting)” value [3] is reported as “upregulation”. For the same molecule, the “p53 level (Western blotting)” value [3] was “significantly stabilized p53”.

In the case of “^PMIBcr/Abl-R6: Bcr/Abl tetramerization domain with PMI grafted in place of residues 5-16, C-terminally extended by Arg-repeating hexapeptide (R6); 78 residues, tetramer”, the “cell viability / growth inhibition” value [4] is reported as “dose-dependent growth inhibition”, the “effect on tumor growth” value [5] is reported as “significantly inhibited it” and the “necrotic and apoptotic tumor cells (H&E and TUNEL)” value (“necrotic and apoptotic tumor cells” for short) [6] is reported as “massive necrotic and apoptotic tumor cells”. The “expression of p21, PUMA and NOXA (Western blotting)” value [3] was “upregulation”, the “p53 level (Western blotting)” value [3] was “significantly stabilized p53” and the “cellular uptake (flow cytometry)” value ([7]; BDP TR-labeled, 10 μM, 4 h) was “much more efficiently”. The “cytosolic distribution (confocal microscopy)” value ([7]; BDP TR-labeled, 10 μM, 4 h) was “cytosolic distribution”, the “effect of amiloride on internalization” value ([7]; amiloride 3 mM, 12 h before addition) was “little effect” and the “effect of heparin on internalization” value ([7]; heparin sodium 5 mM, 12 h before addition) was “almost completely blocked it”.

B1: ^PMIBcr/Abl: Bcr/Abl tetramerization domain with PMI grafted in place of residues 5-16, without R6; negative control (protein)
chain: MVDPTSFAEYWALLSPDSEPPRMELRSVGDIEQELERAKASIRRLEQEVNQERFRMIYLQTLLAKEKKSYDR
With B1 the “blood cell counts (WBC, LYM, MID, GRN, RBC, PLT) versus mock-treated control” value [8] was “no statistically significant difference”, the “effect on tumor growth” value [5] was “marginally active” and the “necrotic and apoptotic tumor cells” value [6] was “partial activity”. The “toxicity” value [2] was “no overt toxicity”.

B2: ^PMIBcr/Abl-R6 (designed binder)
chain: MVDPTSFAEYWALLSPDSEPPRMELRSVGDIEQELERAKASIRRLEQEVNQERFRMIYLQTLLAKEKKSYDRRRRRRR
notes: Bcr/Abl tetramerization domain with PMI grafted in place of residues 5-16 and a C-terminal Arg hexapeptide (R6); 78 residues, chemically synthesized by native chemical ligation; Exists as a tetramer in aqueous buffer
B2: binds [9].

B3: Bcr/Abl-R6 (other)
chain: MVDPVGFAEAWKAQFPDSEPPRMELRSVGDIEQELERAKASIRRLEQEVNQERFRMIYLQTLLAKEKKSYDRRRRRRR
notes: Negative control scaffold without the PMI graft: Bcr/Abl tetramerization domain with C-terminal R6; Chemically synthesized; tetramer in aqueous buffer
With B3 the “cell viability / growth inhibition” value [4] was “neither PMI nor Bcr/Abl-R6 had any effect on the viability”, the “blood cell counts (WBC, LYM, MID, GRN, RBC, PLT) versus mock-treated control” value [8] was “no statistically significant difference” and the “effect on tumor growth” value [5] was “no effect on tumor growth”. For the same molecule, the cell viability [10] was “neither PMI nor Bcr/Abl-R6 had any effect on the viability”, the “apoptosis (FACS)” value [11] was “largely unaffected” and the “necrotic and apoptotic tumor cells” value [6] was “lack of activity”. The “toxicity” value [2] was “no overt toxicity” and the binding result [12] was “no binding”.
